*1 amine or outer side, *2 acyl side, *3 side chain or, on linkers, in order; H or OH if unused. Where a SMILES comes first, the peptide text is derived from it. Bridges are numbered along the chain shown (N, C = ends). Side-chain parts run from the residue outwards. [ ]: non-standard residue; d: D form. The star is where a group is joined. γGlu = O=C(O)[C@H](CCC(=O)[*:2])N[*:1]; Palmitoyl = CCCCCCCCCCCCCCCC(=O)*; Nle = CCCC[C@H](N)C(=O)O; Aib = CC(C)(N)C(=O)O
What was measured:
human GCGR = target: T1, human GCGR (Homo sapiens, UniProt P47871); test: cAMP activity assay, cells expressing human GCGR; format: cell-based; details: ratio of human GCGR EC50 to human GLP1R EC50
T1 construct: expressed in transfected cells
Procedure: (§1) Activity of the peptides at the Glucagon receptor (GCGR) and GLP-1 receptor (GLP1R) was measured in a cAMP activity assay. Peptides were dissolved in 100% DMSO and serially diluted to generate 10 point titrations. The peptide solutions were then transferred into 384-well assay plates (150 nL/well). Assay ready frozen cells expressing human GLP1R or human GCGR were suspended in growth media consisting of DMEM medium (GIBCO), 10% FBS (GIBCO), 1×NEAA(GIBCO), 1×P/S (GIBCO), 10 ug/ml Blasticidin (GIBCO) and 200 μg/mL Hygromycin (GIBCO). […] The cell suspensions (15 μL) were then added to the assay plates containing the peptide solutions (30,000 cells/well for human GCGR; 10,000 cells/well for human GLP1R). […] Production of cAMP was determined using […] kits (DiscoverX) following manufacturer protocol. The plates were incubated for overnight at room temperature in the dark. Luminescence was measured using an EnVision Multilabel plate reader (Perkin Elmer). Native GLP-1 and Glucagon (Bachem) are used as control peptides.

human GLP1R = target: T2, human GLP1R (Homo sapiens, UniProt P43220); test: cAMP activity assay, cells expressing human GLP1R; format: cell-based; details: cAMP production, 1 hour, table does not say whether with or without 20% human serum, read-out: GLPIR EC50 human
T2 construct: expressed in transfected cells
Procedure: as §1

T1 sequence (P47871 26-477): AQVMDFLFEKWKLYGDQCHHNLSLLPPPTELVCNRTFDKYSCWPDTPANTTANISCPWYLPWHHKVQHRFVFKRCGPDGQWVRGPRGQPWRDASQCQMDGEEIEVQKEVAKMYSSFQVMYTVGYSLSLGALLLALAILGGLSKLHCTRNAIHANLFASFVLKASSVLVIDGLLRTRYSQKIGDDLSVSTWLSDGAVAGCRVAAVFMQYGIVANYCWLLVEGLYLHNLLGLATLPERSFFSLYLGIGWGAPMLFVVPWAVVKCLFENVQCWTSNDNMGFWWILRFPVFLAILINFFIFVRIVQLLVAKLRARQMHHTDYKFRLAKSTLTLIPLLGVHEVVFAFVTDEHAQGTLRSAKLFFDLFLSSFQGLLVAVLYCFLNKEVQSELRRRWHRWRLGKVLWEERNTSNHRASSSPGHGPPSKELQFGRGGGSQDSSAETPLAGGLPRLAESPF
T2 sequence (P43220 24-463): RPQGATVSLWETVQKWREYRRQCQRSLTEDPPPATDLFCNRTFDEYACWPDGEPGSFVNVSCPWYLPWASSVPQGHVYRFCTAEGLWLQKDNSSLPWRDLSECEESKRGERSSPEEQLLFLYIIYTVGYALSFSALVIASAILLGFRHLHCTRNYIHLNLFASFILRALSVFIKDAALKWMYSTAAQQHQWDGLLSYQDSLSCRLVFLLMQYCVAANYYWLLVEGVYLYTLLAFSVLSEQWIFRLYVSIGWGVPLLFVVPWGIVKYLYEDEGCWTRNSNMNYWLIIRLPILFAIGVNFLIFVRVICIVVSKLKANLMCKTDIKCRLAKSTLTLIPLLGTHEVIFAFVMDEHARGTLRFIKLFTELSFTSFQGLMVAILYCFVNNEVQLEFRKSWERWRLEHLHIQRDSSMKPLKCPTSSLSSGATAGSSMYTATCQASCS

| Structure (SMILES) | hGCGR/hGLPIR (hTone) (human GCGR) | EC50 (human GLP1R) [nM] |
| --- | --- | --- |
| CCCCCCCCCCCCCCCC(=O)N[C@@H](CCC(=O)N[C@@H](CCC(=O)NCCCC[C@H](NC(=O)[C@H](CC(=O)O)NC(=O)[C@H](CO)NC(=O)[C@@H](NC(=O)[C@H](Cc1ccccc1)NC(=O)[C@@H](NC(=O)CNC(=O)[C@H](CCC(N)=O)NC(=O)C(C)(C)NC(=O)[C@@H](N)Cc1c[nH]cn1)[C@@H](C)O)[C@@H](C)O)C(=O)N[C@@H](CO)C(=O)N[C@@H](CCCCN)C(=O)N[C@@H](Cc1ccc(O)cc1)C(=O)N[C@@H](CC(C)C)C(=O)N[C@@H](CC(=O)O)C(=O)NC(C)(C)C(=O)N[C@H]1CCCCNC(=O)CC[C@@H](C(=O)N[C@@H](Cc2ccccc2)C(=O)N[C@H](C(=O)N[C@@H](CCC(N)=O)C(=O)N[C@@H](Cc2c[nH]c3ccccc23)C(=O)N[C@@H](CC(C)C)C(=O)N[C@@H](CCCC)C(=O)N[C@@H](CC(=O)O)C(=O)N[C@H](C(N)=O)[C@@H](C)O)C(C)C)NC(=O)[C@H](CCC(N)=O)NC(=O)[C@H](C)NC(=O)[C@H](C)NC1=O)C(=O)O)C(=O)O [SEQ ID NO: 16] (H-H[Aib]QGTFTSDK([γGlu-γGlu-Palmitoyl])SKYLD[Aib]KAAQEFVQWL[Nle]DT-NH2; lactam 17-21; N-terminus assumed) | 1.25 | 0.17 |
| CCCCCCCCCCCCCCCC(=O)N[C@@H](CCC(=O)N[C@@H](CCC(=O)NCCCC[C@H](NC(=O)[C@H](CC(=O)O)NC(=O)[C@H](CO)NC(=O)[C@@H](NC(=O)[C@H](Cc1ccccc1)NC(=O)[C@@H](NC(=O)CNC(=O)[C@H](CCC(N)=O)NC(=O)[C@@H](CO)NC(=O)[C@@H](N)Cc1c[nH]cn1)[C@@H](C)O)[C@@H](C)O)C(=O)N[C@@H](CO)C(=O)N[C@@H](CCCCN)C(=O)N[C@@H](Cc1ccc(O)cc1)C(=O)N[C@@H](CC(C)C)C(=O)N[C@@H](CC(=O)O)C(=O)N[C@@H](C)C(=O)N[C@@H](CCCNC(=N)N)C(=O)N[C@@H](C)C(=O)N[C@@H](C)C(=O)N[C@H]1CCCCNC(=O)CC[C@@H](C(=O)N[C@@H](Cc2c[nH]c3ccccc23)C(=O)N[C@@H](CC(C)C)C(=O)N[C@@H](CC(C)C)C(=O)N[C@@H](CC(=O)O)C(=O)N[C@H](C(N)=O)[C@@H](C)O)NC(=O)[C@H](C(C)C)NC(=O)[C@H](Cc2ccccc2)NC(=O)[C@H](CC(=O)O)NC1=O)C(=O)O)C(=O)O [SEQ ID NO: 11] | 0.6 | 0.17 |
| CCCCCCCCCCCCCCCC(=O)N[C@@H](CCC(=O)N[C@@H](CCC(=O)NCCCC[C@H](NC(=O)[C@H](CC(=O)O)NC(=O)[C@H](CO)NC(=O)[C@@H](NC(=O)[C@H](Cc1ccccc1)NC(=O)[C@@H](NC(=O)CNC(=O)[C@H](CCC(N)=O)NC(=O)C(C)(C)NC(=O)[C@@H](N)Cc1c[nH]cn1)[C@@H](C)O)[C@@H](C)O)C(=O)N[C@@H](CO)C(=O)N[C@@H](CCCCN)C(=O)N[C@@H](Cc1ccc(O)cc1)C(=O)N[C@@H](CC(C)C)C(=O)N[C@@H](CC(=O)O)C(=O)N[C@H]1CCCCNC(=O)CC[C@@H](C(=O)N[C@@H](CC(=O)O)C(=O)N[C@@H](Cc2ccccc2)C(=O)N[C@H](C(=O)N[C@@H](CCC(N)=O)C(=O)N[C@@H](Cc2c[nH]c3ccccc23)C(=O)N[C@@H](CC(C)C)C(=O)N[C@@H](CCCC)C(=O)N[C@@H](CC(=O)O)C(=O)N[C@H](C(N)=O)[C@@H](C)O)C(C)C)NC(=O)[C@H](C)NC(=O)[C@H](C)NC(=O)[C@H](CCCNC(=N)N)NC1=O)C(=O)O)C(=O)O [SEQ ID NO: 14] (H-H[Aib]QGTFTSDK([γGlu-γGlu-Palmitoyl])SKYLDKRAAEDFVQWL[Nle]DT-NH2; lactam 16-20; N-terminus assumed) | 1.41 | – |

Reference: patent publication US20230285514A1, “STAPLED LACTAM CO-AGONISTS OF THE GLUCAGON AND GLP-1 RECEPTORS” (Merck Sharp & Dohme LLC, priority 2019, published 2023)
